The results in this text go back to patent US7629385B2, “Sphingolipid-derived pharmaceutical compositions” (priority 2004, dated 2009).

The test system of one test is PR8 virus. The experiment in a line: microbe, parasite or virus in culture. The test is classed as cell-based, influenza virus.
The subject of the next test is Raft liposomes. The experiment in a line: Disrafter-Liposome Raftophile Assay (D-LRA). Particulars: test compound 100 μM.
In a further test the test system is RBL-2H3 cells. The experiment in a line: Degranulation assay (β-hexosaminidase release). The format is cell-based, rat.
The test system of a further test is HIV-1 strain NL4-3. The experiment in a line: HIV assay: infection of HeLa TZM cells. The format is cell-based. Particulars: Human immunodeficiency virus 1, NL43, vs solvent.
In test [1] the test system is vesicular stomatitis virus (VSV). The format is cell-based. Particulars: HeLa cells.
For another test, the system named is Influenza virus. Nature of the test: Virus budding assay (influenza assay). The test is classed as cell-based. Particulars: MDCK cells.
Setting [2] is: unidentified influenza virus, PR8, MDCK, read-out: inhibition of PR8 virus replication.
The mark [3] stands for this setting: Rattus norvegicus, RBL-2H3, 25 μM, vs solvent vehicle.

Procedure for Raft liposomes: The raftophilicity of certain fluorescent indicators varies with the raft content of liposomes which, in turn, is determined by their lipid composition and the presence of raft modulators.
The D-LRA assay detects two extremes of raft modulation, disrafting and raft augmentation. % disrafting below 0 results from an actual increase in partition of the indicator, caused by an increased raft content of the liposomes. […] Significance can be ascribed to values above 25% (disrafting) and below −25% (disrafters by “augmentation”).
Liposomes (defined below) with a raft content of about 50% are incubated with potential disrafters. The change in raft content is then determined with an indicator (standard raftophile).
Raft liposomes: (35% cholesterol, 10.5% shingomyelin (SM), 3.5% GM1, 25.5% phosphatidylethanolamine (PE) and 25.5% phosphatidylcholine (PC))
Non-raft liposomes: N liposomes (50% PE, PC)
Liposomes are prepared by spreading lipids dissolved in tert. butanol on a glass surface at 50° C. in a rotary evaporator rinsed with nitrogen. After 6 h desiccation the lipids are taken up in 40 mM octyl-β-D-glucoside (OG) to a concentration of 1 mg/ml and dialysed for 24 h against 2 changes of 5 I PBS with 25 g Biobeads (Amberlite XAD-2) at 22° C.
Indicators are fluorescent compounds which preferentially partition into rafts. These are selected to represent different structural classes, and different excitation/emission wavelengths. This is important when raft modulators are tested which interfere with indicator fluorescence.
Perylene is a raftophilic compound which embeds completely into membranes.
GS-96 is a raftophilic adduct of the general structure cholesterol-linker-rhodamine-peptide (only the cholesterol is membrane-inserted).
N and R Liposomes were diluted into PBS to a final lipid concentration of 200 μg/ml and 100 μl aliquots preincubated 30 min 37° C. on a thermomixer (1000 rpm).
1 μl of DMSO (solvent controls) and the test compound stock solutions (all 10 mM in DMSO, except where noted) were added and incubated 2 h as above.
1 μl indicator in DMSO was then added (final indicator concentrations GS-96 0.2 μM, perylene 2 μM) and incubation continued for 1 h as above
Incubation mixes were centrifuged 20 min in the TLA-100 rotor of the Beckman Optima centrifuge at 400 000 g (37° C.).

For the compound `CCCCCCCCCCCCC/C=C/[C@@H](OC)[C@H](CO)NC(=O)CCCCC` [Compound 10k], the inhibition at 20 µM in the test on PR8 virus (setting [2]) came to 59.3%. Moreover, the “Disrafting Activity [%]” value in the test with Raft liposomes (perylene as marker) is recorded as 98.6%.
For `CCCCCCCCCCCCC/C=C/[C@@H](O)[C@H](CO)NC(=O)COC` [Compound 10u], the inhibition at 20 µM with PR8 virus (setting [2]) came to 70.3%. Further, testing at 25 µM in the test on RBL-2H3 cells (setting [3]) gave an inhibition of 63%. Further, the “Disrafting Activity [%]” value with Raft liposomes (perylene as marker) was determined as 97.0%.
Consider `CCCCCCCCCCCCCC=CC(O)C(CO)NC(=O)COCCOCCOCCOCCOC` [Compound 10g, N-(3,6,9,12,15-Pentoxahexadecanoyl)-D-erythro-sphingosine], for which the “inhibition of PR8 virus replication” value with PR8 virus (20 μM, MDCK cells, vs solvent vehicle) amounted to 70%. The “activity in the mast cell degranulation assay (words)” value in the test on RBL-2H3 cells is recorded as “strongly inhibitory”. Also, the “inhibition of the release of β-hexosaminidase” value in the test on RBL-2H3 cells (25 μM, vs solvent vehicle) is reported as 65%. In the test on Raft liposomes (perylene as marker), the “Disrafting Activity [%]” value was 89.3%.
In the case of `CCCCCCCCCCCCC/C=C/[C@@H](O)[C@H](CO)NC(=O)CCOCCOCCOCCOCCN` [Compound 10w], the inhibition at 25 µM in the test on PR8 virus (setting [2]) is 50.3%. In the test with RBL-2H3 cells (Rattus norvegicus, RBL-2H3, 6.25 μM, vs solvent vehicle), this compound gave an inhibition at 6.25 µM of 69%. Also, the inhibition at 20 µM with HIV-1 strain NL4-3 was determined as 52%. Also, the “Disrafting Activity [%]” value in the test with Raft liposomes (perylene as marker) worked out at 53.1%.
As for `CCCCCCCCCCCCC/C=C/[C@@H](OC)[C@H](CO)NC(=O)/C=C(\C)CC/C=C(\C)CCC=C(C)C` [Compound 10q], in the test on PR8 virus (setting [2]), the inhibition at 100 µM amounted to 61.6%.
For the compound `CCCCCCCCCCCCC/C=C/[C@@H](OC)[C@H](CO)NC(=O)COCCOCCOCCOCCOC` [Compound 10v], the “inhibition of viral reproduction” value in the test with PR8 virus (influenza) is reported as “very effective inhibition of the viral reproduction”. Also, the inhibition at 20 µM in the test on PR8 virus (setting [2]) is 87.4%; in the test with HIV-1 strain NL4-3, 45%. Besides, at 12.5 µM the inhibition with RBL-2H3 cells (Rattus norvegicus, RBL-2H3, 12.5 μM, vs solvent vehicle) was 74%. For the same compound, in the test on Raft liposomes (perylene as marker), the “Disrafting Activity [%]” value is on record as 96.1%.
As to `CCCCCCCCCCCCC/C=C/[C@@H](O)[C@H](CO)NC(=O)/C=C(\C)CC/C=C(\C)CCC=C(C)C` [Compound 10p], in the test with PR8 virus (setting [2]), the inhibition at 100 µM amounted to 39.2%. Further, the “Disrafting Activity [%]” value in the test with Raft liposomes (GS-96 as marker) is reported as 58.9%.
Consider `CCCCCCCCCCCCC/C=C/[C@@H](O)[C@H](CO)NCCCCCCCCCCCCCCCC` [Compound 10n], for which, in the test on PR8 virus (setting [2]), the inhibition at 100 µM was 34.7%. The “Disrafting Activity [%]” value in the test on Raft liposomes (perylene as marker) is on record as 94.8%.
The corresponding values for `CCCCCCCCCCCCC/C=C/[C@H](O)[C@H](CO)NCCCCCCCCCCCCCCCC` [Compound 10o] are 40.8% and 91.0%.
For `CCCCCCCCCCCCC/C=C/[C@@H](O)[C@H](CO)NC(=O)[C@H]1CC[C@H](C(C)(C)C)CC1` [Compound 10e, N-(trans-4-tert-butylcyclohexylcarbonyl)-D-erythro-sphingosine], the inhibition at 10 µM in the test with PR8 virus (setting [2]) is 21%.
Turning to `CCCCCCCCCCCCC/C=C/[C@@H](O)[C@H](CO)NC(=O)COCCOC` [Compound 10a], the “effect on viral infection in the VSV counterscreen” value in test [1] is “no inhibitory effect on viral infection at all”. Moreover, in the test with Raft liposomes (perylene as marker), the “Disrafting Activity [%]” value came out at 99.2%.
In the case of `CCCCCCCCCCCCC/C=C/[C@@H](O)[C@H](CO)NC(=O)COCCOC` [Compound 10h, N-(3,6-Dioxaheptanoyl)-D-erythro-sphingosine], in the test with Influenza virus, the “result in the virus budding assay” value is reported as “particularly good results”. In the test with PR8 virus (setting [2]), the inhibition at 20 µM was found to be 75%. In addition, in the test with RBL-2H3 cells (setting [3]), at 25 µM the inhibition was 71%. In the test on Raft liposomes (perylene as marker), the “Disrafting Activity [%]” value stood at 72.2%.
Take `CCCCCCCCCCCCC/C=C/[C@@H](OC)[C@@H](N)CO` [Compound 10l, 3-Methylated D-erythro-sphingosine]: the inhibition at 25 µM in the test on RBL-2H3 cells (setting [3]) came to 84%.
